In PubChem BioAssay AID248 (DTP/NCI, 2004):
Where “and” joins values, the source holds several entries; their conditions need not be identical. Equal entries are not always repeated. Toxic doses and inconclusive results are not listed. Rule as the data show it: active = T/C of 150% or more; inactive = T/C below 125%.

System: L1210 leukemia ip in BDF1 mice, survival T/C
Assay: NCI In Vivo Anticancer Drug Screen. Data for tumor model L1210 Leukemia (intraperitoneal) in B6D2F1 (BDF1) mice
Settings: endpoint: mean survival time, higher = longer survival
In short: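 In this screen, tumor-bearing mice given compound are compared to those given vehicle, and their survival values are reported as a treated-to-control quotient.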

[1] = dose: 100.0 mg/kg/injection, schedule: Q04DX003 (ip), vehicle: saline with Tween-80
[2] = dose: 200.0 mg/kg/injection, schedule: Q04DX003 (ip), vehicle: saline with Tween-80
[3] = dose: 400.0 mg/kg/injection, schedule: Q04DX003 (ip), vehicle: saline with Tween-80
[4] = dose: 100.0 mg/kg/injection, schedule: Q04DX003 (ip), vehicle: Klucel (hydroxypropylcellulose) (HPC)
[5] = dose: 200.0 mg/kg/injection, schedule: Q04DX003 (ip), vehicle: Klucel (hydroxypropylcellulose) (HPC)
[6] = dose: 400.0 mg/kg/injection, schedule: Q04DX003 (ip), vehicle: Klucel (hydroxypropylcellulose) (HPC)
[7] = dose: 100.0 mg/kg/injection, schedule: Q01DX009 (ip), vehicle: saline with Tween-80
[8] = dose: 100.0 mg/kg/injection, schedule: Q04DX002 (ip), vehicle: Klucel (hydroxypropylcellulose) (HPC)
[9] = dose: 200.0 mg/kg/injection, schedule: Q04DX002 (ip), vehicle: Klucel (hydroxypropylcellulose) (HPC)
[10] = dose: 400.0 mg/kg/injection, schedule: Q04DX002 (ip), vehicle: Klucel (hydroxypropylcellulose) (HPC)
[11] = dose: 100.0 mg/kg/injection, schedule: Q01DX001 (ip), vehicle: saline
[12] = dose: 200.0 mg/kg/injection, schedule: Q01DX001 (ip), vehicle: saline
[13] = dose: 100.0 mg/kg/injection, schedule: Q04DX003 (ip), vehicle: saline
[14] = dose: 100.0 mg/kg/injection, schedule: Q01DX009 (ip), vehicle: Klucel (hydroxypropylcellulose) (HPC)

Measured: T/C

Brc1ccc(N2N=NC3CN(c4ccccc4)CC32)cc1 (stereo not drawn)
inactive: [1] 88 % of control | [2] 91 % of control | [3] 93 % of control

CC1(C)CC(Br)C(=O)c2ccccc21 (stereo not drawn)
inactive: [4] 100 % of control | [5] 105 % of control | [6] 97 % of control

COc1ccc2c(c1)CCC1=C(C)C(=O)CCC12C (stereo not drawn)
inactive: dose: 100.0 mg/kg/injection, schedule: Q01DX001 (ip), vehicle: Klucel (hydroxypropylcellulose) (HPC) 102 % of control | dose: 200.0 mg/kg/injection, schedule: Q01DX001 (ip), vehicle: Klucel (hydroxypropylcellulose) (HPC) 98 % of control | dose: 400.0 mg/kg/injection, schedule: Q01DX001 (ip), vehicle: Klucel (hydroxypropylcellulose) (HPC) 98 % of control

CC1(C)CC(OP(=O)(OC2CC(C)(C)N(O)C(C)(C)C2)OC2CC(C)(C)N(O)C(C)(C)C2)CC(C)(C)N1O
inactive: dose: 50.0 mg/kg/injection, schedule: Q01DX001 (ip), vehicle: water 104 % of control | dose: 100.0 mg/kg/injection, schedule: Q01DX001 (ip), vehicle: water 94 % of control and 97 % of control | dose: 200.0 mg/kg/injection, schedule: Q01DX001 (ip), vehicle: water 103 % of control | dose: 400.0 mg/kg/injection, schedule: Q01DX001 (ip), vehicle: water 113 % of control

COc1ccc(OC)c(NC(=O)c2cccc3ccccc23)c1
inactive: dose: 50.0 mg/kg/injection, schedule: Q01DX001 (ip), vehicle: saline with Tween-80 102 % of control | dose: 100.0 mg/kg/injection, schedule: Q01DX001 (ip), vehicle: saline with Tween-80 91 % of control | [7] 93 % of control and 96 % of control | dose: 100.0 mg/kg/injection, schedule: Q04DX002 (ip), vehicle: saline with Tween-80 100 % of control and 91 % of control | [1] 95 % of control | dose: 200.0 mg/kg/injection, schedule: Q01DX001 (ip), vehicle: saline with Tween-80 95 % of control | dose: 200.0 mg/kg/injection, schedule: Q01DX009 (ip), vehicle: saline with Tween-80 105 % of control and 90 % of control | dose: 200.0 mg/kg/injection, schedule: Q04DX002 (ip), vehicle: saline with Tween-80 113 % of control and 91 % of control | [2] 95 % of control | dose: 400.0 mg/kg/injection, schedule: Q01DX009 (ip), vehicle: saline with Tween-80 87 % of control and 91 % of control | dose: 400.0 mg/kg/injection, schedule: Q04DX002 (ip), vehicle: saline with Tween-80 94 % of control and 95 % of control | [3] 94 % of control

Nc1c(Br)cc(I)cc1C(=O)O
inactive: [8] 108 % of control | [9] 93 % of control | [10] 104 % of control

CCOC(=O)C1CN(Cc2ccccc2)C(=O)C1=O (stereo not drawn)
inactive: dose: 50.0 mg/kg/injection, schedule: Q01DX001 (ip), vehicle: saline 102 % of control | dose: 75.0 mg/kg/injection, schedule: Q01DX009 (ip), vehicle: saline 101 % of control | [11] 102 % of control | dose: 150.0 mg/kg/injection, schedule: Q01DX009 (ip), vehicle: saline 99 % of control | [12] 102 % of control | dose: 300.0 mg/kg/injection, schedule: Q01DX009 (ip), vehicle: saline 99 % of control | dose: 400.0 mg/kg/injection, schedule: Q01DX001 (ip), vehicle: saline 114 % of control

Cc1ccc(C2NC(=S)N3C(c4ccc(C)cc4)NC(=S)N23)cc1 (stereo not drawn)
inactive: dose: 100.0 mg/kg/injection, schedule: Q01DX009 (ip), vehicle: gum acacia 105 % of control | dose: 100.0 mg/kg/injection, schedule: Q04DX003 (ip), vehicle: gum acacia 95 % of control | dose: 200.0 mg/kg/injection, schedule: Q01DX009 (ip), vehicle: gum acacia 100 % of control | dose: 200.0 mg/kg/injection, schedule: Q04DX003 (ip), vehicle: gum acacia 90 % of control | dose: 400.0 mg/kg/injection, schedule: Q01DX009 (ip), vehicle: gum acacia 91 % of control | dose: 400.0 mg/kg/injection, schedule: Q04DX003 (ip), vehicle: gum acacia 95 % of control

Nc1nc(SCc2ccncc2)c2[nH]cnc2n1
inactive: dose: 178.0 mg/kg/injection, schedule: Q01DX001 (ip), vehicle: saline 118 % of control

NC(N)=NN=C(C1CC1)C1CC1
inactive: dose: 15.0 mg/kg/injection, schedule: Q01DX Z (ip), vehicle: carboxymethylcellulose (CMC) 103 % of control | dose: 30.0 mg/kg/injection, schedule: Q01DX Z (ip), vehicle: carboxymethylcellulose (CMC) 89 % of control | dose: 60.0 mg/kg/injection, schedule: Q01DX Z (ip), vehicle: carboxymethylcellulose (CMC) 95 % of control | dose: 120.0 mg/kg/injection, schedule: Q01DX Z (ip), vehicle: carboxymethylcellulose (CMC) 92 % of control and 96 % of control | dose: 120.0 mg/kg/injection, schedule: Q01DX Z (oral), vehicle: carboxymethylcellulose (CMC) 105 % of control | dose: 240.0 mg/kg/injection, schedule: Q01DX Z (ip), vehicle: carboxymethylcellulose (CMC) 92 % of control and 104 % of control | dose: 240.0 mg/kg/injection, schedule: Q01DX Z (oral), vehicle: carboxymethylcellulose (CMC) 105 % of control | dose: 480.0 mg/kg/injection, schedule: Q01DX Z (ip), vehicle: carboxymethylcellulose (CMC) 104 % of control | dose: 480.0 mg/kg/injection, schedule: Q01DX Z (oral), vehicle: carboxymethylcellulose (CMC) 103 % of control | dose: 960.0 mg/kg/injection, schedule: Q01DX Z (oral), vehicle: carboxymethylcellulose (CMC) 100 % of control

COc1cc(C=O)c([N+](=O)[O-])cc1OC
inactive: [11] 102 % of control | [12] 102 % of control

CCCCOCCOCCOCCO
inactive: dose: 100.0 mg/kg/injection, schedule: Q01DX009 (ip), vehicle: saline 98 % of control | [13] 98 % of control | dose: 200.0 mg/kg/injection, schedule: Q01DX009 (ip), vehicle: saline 98 % of control | dose: 200.0 mg/kg/injection, schedule: Q04DX003 (ip), vehicle: saline 98 % of control | dose: 400.0 mg/kg/injection, schedule: Q01DX009 (ip), vehicle: saline 102 % of control | dose: 400.0 mg/kg/injection, schedule: Q04DX003 (ip), vehicle: saline 97 % of control

COc1coc(CO)cc1=O
inactive: dose: 50.0 mg/kg/injection, schedule: Q01DX009 (ip), vehicle: saline with Tween-80 94 % of control | [7] 97 % of control

BrC(Br)c1ccc(C(Br)Br)cc1
inactive: [1] 94 % of control | [2] 100 % of control | [3] 94 % of control

COc1ccc(NC(=O)Oc2cc(C)cc(C)c2)cc1
inactive: [14] 106 % of control | [4] 100 % of control | dose: 200.0 mg/kg/injection, schedule: Q01DX009 (ip), vehicle: Klucel (hydroxypropylcellulose) (HPC) 101 % of control | [5] 97 % of control | dose: 400.0 mg/kg/injection, schedule: Q01DX009 (ip), vehicle: Klucel (hydroxypropylcellulose) (HPC) 100 % of control | [6] 92 % of control

S=C(NCc1ccc(Cl)c(Cl)c1)Nc1ccccc1
inactive: dose: 25.0 mg/kg/injection, schedule: Q01DX009 (ip), vehicle: Klucel (hydroxypropylcellulose) (HPC) 102 % of control | dose: 50.0 mg/kg/injection, schedule: Q01DX009 (ip), vehicle: Klucel (hydroxypropylcellulose) (HPC) 90 % of control | [14] 87 % of control and 90 % of control

CCC(CC)N=C(N)N
inactive: [13] 93 % of control

Cc1ccc(-c2cc(=S)ss2)cc1
inactive: dose: 100.0 mg/kg/injection, schedule: Q01DX001 (ip), vehicle: carboxymethylcellulose (CMC) 100 % of control | dose: 200.0 mg/kg/injection, schedule: Q01DX001 (ip), vehicle: carboxymethylcellulose (CMC) 92 % of control | dose: 400.0 mg/kg/injection, schedule: Q01DX001 (ip), vehicle: carboxymethylcellulose (CMC) 94 % of control

CCN1CCCC(Nc2cc(C)nc(Nc3nc4cc(Cl)c(Cl)cc4[nH]3)n2)C1 (stereo not drawn)
inactive: dose: 25.0 mg/kg/injection, schedule: Q01DX009 (ip), vehicle: saline with Tween-80 94 % of control | [11] 98 % of control

Cc1cc(C)cc(-n2cccc2C(=O)O)c1
inactive: [8] 89 % of control | [9] 86 % of control | [10] 96 % of control
